How the values were obtained:
HCT116 (colon) = experiment: MTT in vitro cytotoxic activity assay, HCT116; type: cell-based; conditions: Homo sapiens, HCT-116; HCT116 cells, exposed for 96 hours; read-out: Cytotoxicity activity IC50, HCT116 (colon)
Experimental: (§1) Compounds 1-20 were screened for their in vitro cytotoxic activity utilizing a 3-(4,5-dimethyl-thiazol-2-yl)-2,5-diphenyltetrazolium bromide (MTT) assay against selected cancer human cell lines consisting of PC3 (prostate), HCT 116 (colon), A375 (melanoma), H1299 (lung), MIAPaCa-2 (pancreas), HL60 (leukemia), MCF7 (breast), MDA-MB-231 (breast) (T. Mosmann, J. Immunol. Meth., 1983, 65, 55-63). The cells were cultured at 37° C. in RMPI1640 medium supplemented with 10% fetal bovine serum, 50 IU/mL penicillin, and 50 μg/mL streptomycin in a 5% CO2 incubator. All cells were sub-cultured 3 times/week by trypsinisation. Viable cells were seeded and allowed to adhere for 12 h before a test drug was added in 96-well plates at an initial density of 1.0×10^5 cells/mL. Tumor cell lines were separately exposed to various concentrations of the tested compounds followed by incubation at a temperature of 37° C. during 96 hours inside a medium of fresh RMPI 1640. Cells were subsequently incubated at 37° C. using MTT at 0.5 mg/mL during 4 hours. After removal of supernatant, formazan crystals were dissolved in isopropanol and the optical density was measured at 570 nm. CX-4945 was used as a positive control.

MCF7 (breast) = experiment: MTT in vitro cytotoxic activity assay, MCF7; type: cell-based; conditions: Homo sapiens; MCF7 cells, exposed for 96 hours; read-out: Cytotoxicity activity IC50, MCF7 (breast)
Experimental: as §1

PC3 (prostate) = experiment: MTT in vitro cytotoxic activity assay, PC3; type: cell-based; conditions: Homo sapiens, PC-3; PC3 cells, exposed for 96 hours; read-out: Cytotoxicity activity IC50, PC3 (prostate)
Experimental: as §1

A375 (melanoma) = experiment: MTT in vitro cytotoxic activity assay, A375; type: cell-based; conditions: Homo sapiens, A-375; A375 cells, exposed for 96 hours; read-out: Cytotoxicity activity IC50, A375 (melanoma)
Experimental: as §1

recombinant human CK2 = target: T1, recombinant human CK2 (Homo sapiens, UniProt P68400); experiment: CK2 Kinase Assay (33P-ATP, substrate peptide RRRDDDSDDD); type: biochemical; conditions: recombinant human CK2 holoenzyme, final ATP 15 μM, 10 min at 30° C.; read-out: protein kinase CK2 activity IC50
T1 construct: purchased Millipore
Experimental: CK2 Kinase Assay was conducted using the protocol as described in Pierre F. et al; J. Med. Chem. 2011, 54, 635-654. The tested compounds in aqueous solution were added at a volume of 10 μL to a reaction mixture comprising 10 μL of assay dilution buffer (ADB; 20 mM MOPS, pH 7.2, 25 mM β-glycerol phosphate, 5 mM EGTA, 1 mM sodium orthovanadate, and 1 mM dithiothreitol), 10 μL of substrate peptide (RRRDDDSDDD, dissolved in ADB at a concentration of 1 mM), 10 μL of recombinant human CK2 (RRββ-holoenzyme, 25 ng dissolved in ADB; Millipore). Reactions were initiated by the addition of 10 μL of ATP solution (90% 75 mMMgCl2, 75 sM ATP (final ATP concentration:15 μM) dissolved in ADB; 10% [γ-^33P] ATP (stock 1 mCi/100 μL; 3000 Ci/mmol (Perkin-Elmer) and maintained for 10 min at 30° C. The reactions were quenched with 100 μL of 0.75% phosphoric acid and then transferred to and filtered through a phosphor cellulose filter plate (Millipore). After washing each well five times with 0.75% phosphoric acid, the plate was dried under vacuum for 5 min and, following the addition of 15 μL of scintillation fluid to each well, the residual radioactivity was measured using a Wallac luminescence counter. The IC50 values were derived from eight concentrations of test inhibitors.

MIAPaCa-2 (pancreas) = experiment: MTT in vitro cytotoxic activity assay, MIAPaCa-2; type: cell-based; conditions: Homo sapiens, MIA PaCa-2; MIAPaCa-2 cells, exposed for 96 hours; read-out: Cytotoxicity activity IC50, MIAPaCa-2 (pancreas)
Experimental: as §1

MDA-MB-231 (breast) = experiment: MTT in vitro cytotoxic activity assay, MDA-MB-231; type: cell-based; conditions: Homo sapiens; MDA-MB-231 cells, exposed for 96 hours; read-out: Cytotoxicity activity IC50, MDA-MB-231 (breast)
Experimental: as §1

HL60 (leukemia) = experiment: MTT in vitro cytotoxic activity assay, HL60; type: cell-based; conditions: Homo sapiens, HL-60; HL60 cells, exposed for 96 hours; read-out: Cytotoxicity activity IC50, HL60 (leukemia)
Experimental: as §1

H1299 (lung) = experiment: MTT in vitro cytotoxic activity assay, H1299; type: cell-based; conditions: Homo sapiens, NCI-H1299; H1299 cells, exposed for 96 hours; read-out: Cytotoxicity activity IC50, H1299 (lung)
Experimental: as §1

T1 sequence (P68400 whole entry): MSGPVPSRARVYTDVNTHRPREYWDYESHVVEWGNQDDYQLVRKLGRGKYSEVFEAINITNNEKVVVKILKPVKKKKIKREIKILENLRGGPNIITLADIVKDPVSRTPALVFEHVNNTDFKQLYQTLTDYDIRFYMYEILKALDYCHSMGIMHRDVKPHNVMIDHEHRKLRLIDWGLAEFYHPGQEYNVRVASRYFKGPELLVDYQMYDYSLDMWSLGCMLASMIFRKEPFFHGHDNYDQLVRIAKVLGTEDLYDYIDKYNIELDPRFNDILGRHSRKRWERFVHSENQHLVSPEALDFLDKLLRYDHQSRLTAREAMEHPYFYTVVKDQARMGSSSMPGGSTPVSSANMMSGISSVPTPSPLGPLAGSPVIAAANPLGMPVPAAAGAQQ
T1 sequence (P67870 whole entry partner): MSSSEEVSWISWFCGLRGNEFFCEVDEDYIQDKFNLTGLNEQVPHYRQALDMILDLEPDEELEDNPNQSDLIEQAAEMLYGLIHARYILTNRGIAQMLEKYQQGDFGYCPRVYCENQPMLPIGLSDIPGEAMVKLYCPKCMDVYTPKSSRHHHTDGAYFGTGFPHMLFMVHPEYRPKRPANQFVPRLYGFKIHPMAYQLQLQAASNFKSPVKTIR

Work on `Clc1cccc(Nc2c(-c3ccncn3)nn3cnccc23)c1` [Compound 13, N-(3-chlorophenyl)-2-(pyrimidin-4-yl)pyrazolo[1,5-c]pyrimidin-3-amine] yielded an IC50 (HCT116 (colon)) of 2100 nM, an IC50 (MCF7 (breast)) of 5500 nM and an IC50 (PC3 (prostate)) of 1200 nM. The IC50 (A375 (melanoma)) was 3400 nM, the IC50 (recombinant human CK2) was 110 nM and the IC50 (MIAPaCa-2 (pancreas)) was 1500 nM. It also gave an IC50 (MDA-MB-231 (breast)) of 4600 nM, an IC50 (HL60 (leukemia)) of 3900 nM and an IC50 (H1299 (lung)) of 1600 nM.
